From patent publication US20230060873A1, “COMPOUNDS AND METHODS FOR FORMING ION CHANNELS IN BIOLOGICAL MEMBRANES” (Washington University, priority 2021, published 2023)
≈ marks a conversion by molar mass, not a printed value.

Columns and labels:
Bacillus subtilis [1] = assay: Toxicity (MIC) of dialkylated lariat ethers on B. subtilis; format: cell-based; conditions: B. subtilis 168 WT, 12 h, visual turbidity, read-out: minimum inhibitory concentration (MIC)
Description: The cyto-toxicity was determined by measuring the minimum inhibitory concentrations (MIC) for this series of dialkylated lariat ethers in the Gram-negative bacteria Escherichia coli, the Gram-positive bacteria Bacillus subtilis, and human embryonic kidney (HEK293T) cells.
On bacteria. XL1 blue strain Escherichia coli cells transformed with a pET28a plasmid (which contains a kanamycin resistance gene) were grown at 37° C. in 2 mL of LB medium (Miller's LB broth, Research Products International) supplemented with 50 μg/mL of kanamycin until the optical density (600 nm) reached 0.600. The starting density of bacteria in the remainder of the experiments was a 1/100 dilution of this bacterial density, which was split into 4 mL cultures. A series of 400, 100, 10 and 5 mM stock solutions of each dialkylated diaza(18-crown-6) compounds in trifluoroethanol (TFE) were diluted by adding to the 4 mL cultures until final concentrations of 400, 200, 100, 50, 20, 15, 10, 5, 4, 3, 2 and 1 μM were reached, with the final TFE concentration never >0.1% v/v. Negative controls in the presence of TFE 0.1% v/v or the absence of any treatment were done for each batch. The cultures were incubated at 37° C. with agitation for 12 h. Bacillus subtilis (168 WT) toxicity tests were carried out using an identical protocol, except for the addition of the antibiotic. […] Each compound was assayed a minimum of three times at each tested concentration.

[2] = Solubility in trifluoroethanol (TFE); format: physicochemical; conditions: trifluoroethanol stock solutions
[3] = Planar lipid bilayer ion channel recordings; format: biochemical; conditions: 2 μM; bilayer clamped at 100 mV; 150 mM KCl, 10 mM HEPES, pH 7.4
Description: Experiments in planar lipid bilayers were performed via a Nanion Orbit-mini planar bilayer system. The planar membranes were formed by painting a 25 mg/mL solution of lipids in n-nonane over the four 50 μm apertures on the chip. The lipids used were asolectin from soybean (Sigma-Aldrich) or a 3:1 w/w mix of 1-palmitoyl-2-oleoyl-sn-glycero-3-phosphoethanolamine (POPE) and 1-palmitoyl-2-oleoyl-sn-glycero-3-phospho-(1′-rac-glycerol) (POPG) (Avanti Polar lipids). The solutions tested were KCl solution (150 mM KCl, 10 mM HEPES, pH adjusted to 7.4 with KOH), NaCl solution (150 mM NaCl, 10 mM HEPES, pH adjusted to 7.4 with NaOH), and a concentrated KCl solution (500 mM KCl, 10 mM HEPES, pH adjusted to 7.4 with KOH). When the appropriate membrane formed, the voltage was clamped at 100 mV or −100 mV, and a stock solution of gramicidin D (Sigma-Aldrich) in DMSO or LEC10 in TFE were added up to the desired concentration. The tested concentration of gramicidin D was 1 nM and 2, 10, 100 and 200 μM were tested for LEC10. Two different temperatures were tested for each condition: 25 and 37° C. The current was recorded over 10 min for the gramicidin test and up to 1 h for the LEC10 test. The data was analyzed with Clampfit 10.7 software (Axon Instruments).
FIGS. 41 and 42 show the lipid bilayer recordings. Current through the asolectin planar lipid bilayer clamped at 100 mV was recorded in the presence of […] (FIG. 41) and 2 μM LEC10 (FIG. 42). In both cases, the solution was 150 mM KCl, 10 mM HEPES, pH 7.4. […] This lack of unitary channel formation, or even a carrier-like increase of the conductance, precludes an ionophore-like mechanism of ion transport.

Bacillus subtilis [4] = assay: Toxicity (MIC) of MAcBCE and MAkBCE compounds on B. subtilis; format: cell-based; conditions: B. subtilis 168 WT with pRB374, 12 h, up to 400 μM
Description: XL1 blue strain Escherichia coli cells transformed with pET28a plasmid containing a kanamycin resistance gene, were grown at 37° C. in 2 mL of LB medium (Miller's LB broth, Research Products International) supplemented with 50 μg/mL of kanamycin, until the optical density (OD600) reached 0.6. The starting density of bacteria in the remainder of the experiments was a 1/100 dilution of this bacterial density, which was split into 4 mL cultures. A series of 400, 100, 10 and 5 mM stock solutions of each monoacylated benzo(crown-ether) (MAcBCE) and monoalkylated benzo(crown-ether) (MAkBCE) compounds in trifluoroethanol (TFE) were diluted by addition to the 4 mL cultures to reach final concentrations of 400, 200, 100, 50, 20, 15, 10, 5, 4, 3, 2 and 1 μM. The final TFE concentration was never higher than 0.1% v/v. Negative controls in the presence of TFE 0.1% v/v or in the absence of any treatment for each batch gave similar bacterial growth. The cultures were incubated at 37° C. with agitation for 12 h. Bacillus subtilis (168 WT) toxicity tests were carried out using an identical protocol, except they were transformed with the shuttle plasmid pRB374 in the presence of 5 μg/mL of kanamycin. […] Each compound was assayed a minimum of three times at each tested concentration.
The cytotoxicity of MABCE compounds was determined by measuring the MIC in liquid cultures of either the gram-negative bacteria Escherichia coli or the gram-positive bacteria Bacillus subtilis. […] As some curves overlap, portions of them are hidden. Values of MIC of 400 μM indicate that the value was either 400 μM, or it was higher and then was not determined. Each compound was assayed a minimum of three times at each different concentration. MICs for 5-A-4, 5-A-11, 6-A-11 and 6-O-11 could not be determined because the compounds were not soluble in TFE. While E. coli was not susceptible to any of the tested compounds at concentrations as high as 400 μM (data not shown), B. subtilis was susceptible to MABCE compounds bearing 15-crown-5 and 18-crown-6 scaffolds, but not to compounds containing a 12-crown-4 scaffold, as shown in FIG. 1.

B. subtilis membranes = assay: DiSC3(5) depolarization assay, MAcBCE/MAkBCE; format: cell-based, Bacillus subtilis; conditions: 2 μM compound, 60 mM KCl, NaCl or NMDG-Cl; for change in DiSC3(5) fluorescence (membrane depolarization): 25° C, 10 minutes
Description: A 2 mL liquid culture of transformed B. subtilis cells was grown at 37° C. in LB medium supplemented with 5 μg/mL kanamycin until OD600=0.6 was reached. The cells were collected by centrifugation at 2000 rpm over 3 min. The bacteria were washed twice with an NMDG-MeSO3 solution (100 mM NMDG, 10 mM HEPES, pH adjusted to 7.4 with methane sulfonic acid). […] The working dye solution was a 200 μM solution of DiSC3(5) (3,3′-dipropylthiadicarbocyanine iodide; Tokyo Chemical Industry) in DMSO. A series of 2 M solutions of NMDG-Cl, NaCl and KCl were prepared containing 10 mM HEPES; the pH was adjusted to pH 7.4 with NMDG, NaOH or KOH, respectively, to avoid any pH changes after their addition. The experiment was initiated with 3 mL of NMDG-MeSO3 in a quartz cuvette, then 5 μL of the dye solution was added (timepoint t1, 50 sec) for a 0.3 μM final concentration by the end of experiment. This was followed by the addition of 100 μL of the B. subtilis suspension (timepoint t2, 100 sec). After 150 sec (timepoint t3, 250 sec), the fluorescence stabilized to a minimum intensity and 100 μL of the 2 M NMDG-Cl, NaCl or KCl solution was added to reach ˜60 mM final concentration of the salt. The final step was the addition 0.64 μL of a 10 mM stock solution of the desired MAcBCE or MAkBCE compound in TFE (timepoint t4, 400 sec), for a final concentration of 2 μM. Negative controls were performed by adding the same volume of pure TFE to the cuvette at timepoint t4. Fluorescence intensity was recorded each second using a Horiba Fluoromax 4 spectrometer (λexcitation=640 nm; λemission=670 nm). The solution inside the cuvette was vigorously mixed throughout the experiment by using a magnetic stirrer and the temperature was kept constant at 25° C. For purposes of normalization, the fluorescence intensity was divided by the fluorescence level just before timepoint t2.
To determine whether MAcBCE or MAkBCE compounds catalyse ion-selective flux, a set of highly bioactive members bearing ten-carbon chain lengths were tested for their ability to depolarize B. subtilis membranes using a test based on the fluorescent dye 3,3-dipropylthiadicarbocyanine (DiSC3(5)). This set of compounds were selected as four of the most toxic members of the MAcBCE and MAkBCE compound library (5-O-10, 5-A-10, 6-O-10, and 6-A-10; FIG. 3) belong to this group and all are soluble in TFE. The two non-toxic benzo(12-crown-4) scaffold members (4-O-10 and 4-A-10; FIG. 3) were used as controls.
FIGS. 4 and 5 show the time course of DiSC3(5) fluorescence due to the addition of 2 μM 6-A-10 (FIG. 4) and 6-O-10 (FIG. 5). The average of the final fluorescence values (mean±S.E.M.) of at least three experiments are shown in FIGS. 4 and 5 and are similarly plotted for 4-A-10 (FIG. 6), 5-A-10 (FIG. 7), 6-A-10 (FIG. 8), 4-O-10 (FIG. 9), 5-O-10 (FIG. 10), and 6-O-10 (FIG. 11). Experiments were performed in a NMDG-MeSO3 solution (100 mM NMDG, 10 mM HEPES, pH adjusted to 7.4 with methane sulfonic acid). The events are: t1, addition of dye; t2, addition of B. subtilis; t3, addition of a 2 M NMDG-Cl, 2 M NaCl or a 2 M KCl solution up to a final concentration of 60 mM; t4, addition of each MAcBCE or MAkBCE compound up to 2 μM. Experiments were repeated at least four times per condition and normalized relative to the fluorescence intensity just before the addition of cells.
The potentiometric dye DiSC3(5) was used to measure the ability of MAcBCE and MAkBCE compounds to catalyse ion-selective transport. DiSC3(5) undergoes membrane voltage-dependent partitioning between the intracellular and the extracellular medium. DiSC3(5) accumulates within a cell with a polarized membrane (negatively charged inside the cell) and is released when the cell membrane is depolarized (positively charged inside the cell). The membrane voltage in B. subtilis is roughly −120 mV, leading to DiSC3(5) accumulation in the bacteria (timepoint t2 in FIG. 4A-B). […]

Row | solubility in TFE [2] | Compound | toxicity / susceptibility of B. subtilis (MIC, FIG. 1) (Bacillus subtilis [4]) | also measured
1 | – | CCCCCCCCCCCN1CCOCCOCCN(CCCCCCCCCCC)CCOCCOCC1 [LEC11, Diundecyl diaza(18-crown-6)] | – | MIC (Bacillus subtilis [1]): 2 µM (≈ 1.14 µg/mL)
2 | not soluble | CCCCc1ccc2c(c1)OCCOCCOCCOCCO2 [Compound 5-A-4, 15-butyl-2,3,5,6,8,9,11,12-octahydrobenzo[b][1,4,7,10,13]pentaoxacyclopentadecine] | – | –
3 | not soluble | CCCCCCCCCCCc1ccc2c(c1)OCCOCCOCCOCCOCCO2 [Compound 6-A-11, 18-undecyl-2,3,5,6,8,9,11,12,14,15-decahydrobenzo[b][1,4,7,10,13,16]hexaoxacyclooctade-cine] | – | –
4 | – | gramicidin D | – | ion channel activity [3]: unitary channels
5 | – | CCCCCCCCCCCCN1CCOCCOCCN(CCCCCCCCCCCC)CCOCCOCC1 [LEC12, Didodecyl diaza(18-crown-6)] | – | MIC (Bacillus subtilis [1]): 2 µM (≈ 1.2 µg/mL)
6 | – | CCCCCCCCCC(=O)c1ccc2c(c1)OCCOCCOCCO2 [Compound 4-O-10, 1-(2,3,5,6,8,9-hexahydrobenzo[b][1,4,7,10]tetraoxacyclododecin-12-yl)decan-1-one] | non-toxic | change in DiSC3(5) fluorescence (membrane depolarization) (B. subtilis membranes): negligible
7 | – | CCCCCCCCCCc1ccc2c(c1)OCCOCCOCCO2 [Compound 4-A-10, 12-decyl-2,3,5,6,8,9-hexahydrobenzo[b][1,4,7,10]tetraoxacyclododecine] | non-toxic | change in DiSC3(5) fluorescence (membrane depolarization) (B. subtilis membranes): negligible
8 | not soluble | CCCCCCCCCCC(=O)c1ccc2c(c1)OCCOCCOCCOCCOCCO2 [Compound 6-O-11, 1-(2,3,5,6,8,9,11,12,14,15-decahydrobenzo[b][1,4,7,10,13,16]hexaoxacyclooctadecin-18-yl)undecan-1-one] | – | –
9 | – | CCCCCCCCCC(=O)c1ccc2c(c1)OCCOCCOCCOCCO2 [Compound 5-O-10, 1-(2,3,5,6,8,9,11,12-octahydrobenzo[b][1,4,7,10,13]pentaoxacyclopentadecin-15-yl)decan-1-one] | most toxic | kinetics of the depolarization, ion dependence (B. subtilis membranes): fastest in presence of K^+ followed by Na^+ and then NMDG^+
10 | not soluble | CCCCCCCCCCCc1ccc2c(c1)OCCOCCOCCOCCO2 [Compound 5-A-11, 15-undecyl-2,3,5,6,8,9,11,12-octahydrobenzo[b][1,4,7,10,13]pentaoxacyclopentadecine] | – | –
11 | – | CCCCCCCCCCCCCN1CCOCCOCCN(CCCCCCCCCCCCC)CCOCCOCC1 [LEC13, Ditridecyl diaza(18-crown-6)] | – | MIC (Bacillus subtilis [1]): > 400 µM
12 | – | CCCCCCCCCCc1ccc2c(c1)OCCOCCOCCOCCO2 [Compound 5-A-10, 15-decyl-2,3,5,6,8,9,11,12-octahydrobenzo[b][1,4,7,10,13]pentaoxacyclopentadecine] | most toxic | kinetics of the depolarization, ion dependence (B. subtilis membranes): fastest in presence of K^+ followed by Na^+ and then NMDG^+
